Read-outs that look alike come from different tables or passages of the source. Numbered stars: 1 amine (or outer) side, 2 acyl side, 3 side chain; on linkers, the order of the positions; unused ones are H or OH. Bridge positions count the residues as written; N and C are the ends. Square brackets hold non-standard residues; d marks the D form. Peptide text beside a SMILES is read from it. Phe(2,4-Cl2) = N[C@@H](Cc1ccc(Cl)cc1Cl)C(=O)O; Bip = N[C@@H](Cc1ccc(-c2ccccc2)cc1)C(=O)O; dPhe(4-NH2) = Nc1ccc(C[C@@H](N)C(=O)O)cc1; Phe(4-NH2) = Nc1ccc(C[C@H](N)C(=O)O)cc1; d(hPhe) = N[C@H](CCc1ccccc1)C(=O)O; d2Thi = N[C@H](Cc1cccs1)C(=O)O; Suc = O=C(CCC(=O)[*:2])[*:1]; Nphe = O=C(O)CNCc1ccccc1; GABA = NCCCC(=O)O
Assays:
[1] = test system: TNF-α (degradation of IkB in HeLa cells or A431 cells); assay: Human cell-based assay: inhibition of TNF-α induced degradation of IkB; conditions: for inhibition at 10 µM: read-out: Inhibition at Various Compound Concentrations, 10 μM; for inhibition at 5 µM: read-out: Inhibition at Various Compound Concentrations, 5 μM; for inhibition at 25 µM: 25 μM compound, read-out: Inhibition at Various Compound Concentrations, 25 μM
[2] = target: T1, TNFα / TNFα receptor (TNFα R1/Fc) (Homo sapiens, UniProt P01375); assay: Inhibition of binding of TNFα to the TNFα receptor (plate ELISA competition); conditions: Table 2
T1 construct: purchased R&D Systems
T1 sequence (P01375 77-233 limits assumed, species assumed): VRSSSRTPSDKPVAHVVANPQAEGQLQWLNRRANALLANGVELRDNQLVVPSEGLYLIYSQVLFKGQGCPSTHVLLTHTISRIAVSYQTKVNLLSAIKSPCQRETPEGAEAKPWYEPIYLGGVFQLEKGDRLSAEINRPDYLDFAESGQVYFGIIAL
In short: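 Plates were coated with TNFα at 15 nM. Test compound and 8.33 nM receptor-Fc (PBST, 2% DMSO) were first mixed in solution for 30 min at room temperature, then transferred to the plates for another 30 min. Competition was read by absorbance at 450 nm after HRP anti-human IgG Fc detection with TMB.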

rat paw edema model = assay: Rat paw edema model (carrageenan), anti-inflammatory activity; assay type: in vivo, Sprague-Dawley (SD) rats
Procedure: Compounds 3, 4, 10 and 202 were tested in a rat paw edema model to determine anti-inflammatory activity. Seven groups (one for Vehicle A [15 mL PEG400, 3 mL Graves Grain alcohol (190 proof), 1.8 mL dimethylacetamide and 10.2 mL deionized water] alone as a negative control, one for Vehicle B [0.1M NaHCO3] alone as a negative control, one for each of the four test compounds dissolved in Vehicle A, and one for indomethacin dissolved in Vehicle B as a positive control), each group containing six Sprague-Dawley (SD) rats (180-200 g) randomized by weight. Initial paw volumes were measured by placing the right hind limb of the rat up to the top of the hock in a beaker of water sitting on a scale that had been tared to zero and recording the readout.
Rats were pre-treated with either i) one of the test compounds, or ii) a positive or negative control. Vehicle A alone and test compound dissolved in Vehicle A (Compound 3-1.0 mg/kg; Compound 4-0.4 mg/kg; Compound 10-0.5 mg/kg; Compound 202-0.3 mg/kg) were administered by intravenous injection. Vehicle B alone and indomethacin (5 mg/kg in 0.1M NaHCO3) was administered by intraperitoneal injection. Thirty minutes after this pretreatment, rats were anesthetized and injected with 0.1 mL of carrageenan (10 mg/mL in water) in the subplantar region of the right hind foot using a ½ inch 26 gauge needle attached to a 1 cc syringe.
At 2, 4 and 6 hours post-carrageenan injection, the right hind foot of each rat was measured for paw volume as described above.
We next investigated the effect of varying intravenous doses of Compound 202 (0.05, 0.10, 0.30, and 1.00 mg/kg) in the same model using the same protocol (6 rats per group). […] We also investigated the affect of oral dosing (10 mg/kg) of Compound 202 in the same model. For oral dosing, a 2.5 mg/mL suspension of Compound 202 was prepared in Vehicle A. Rats were orally administered 4 mL/kg of that suspension.

[3] = 10 μM compound, HeLa or A431 cells
[4] = read-out: Activity (IC50, inhibition of TNFα binding to TNFα R1/Fc)
[5] = 5 μM compound, HeLa or A431 cells

SMILES: C[C@@H](NC(=O)[C@@H]1Cc2ccc(cc2)OCC(=O)N[C@@H](Cc2cccs2)C(=O)N[C@@H](Cc2ccc(-c3ccccc3)cc2)C(=O)N[C@@H](Cc2ccccc2)C(=O)N1)C(=O)O [Compound 341]
- inhibition at 10 µM [1, 3]: < 10%
- IC50 [2, 4]: < 10 µM

SMILES: COc1ccc2c(c1)c(CC(=O)O)c(C)n2C(=O)c1ccc(Cl)cc1 [indomethacin, reference compound]
- Change in Paw Volume (rat paw edema model; Table 3, positive control 5 mg/kg IP, 2 h post-carrageenan): 0.61 ± 0.10 mL
- Change in Paw Volume (rat paw edema model; Table 3, positive control 5 mg/kg IP, 4 h post-carrageenan): 0.92 ± 0.12 mL
- Change in Paw Volume (rat paw edema model; Table 3, positive control 5 mg/kg IP, 6 h post-carrageenan): 0.99 ± 0.10 mL
- Change in Paw Volume (rat paw edema model; Table 4, positive control IP (5 mg/kg), 2 h post-carrageenan): 0.61 ± 0.08 mL
- Change in Paw Volume (rat paw edema model; Table 4, positive control IP (5 mg/kg), 4 h post-carrageenan): 0.82 ± 0.05 mL
- Change in Paw Volume (rat paw edema model; Table 4, positive control IP (5 mg/kg), 6 h post-carrageenan): 0.90 ± 0.11 mL
- Change in Paw Volume (rat paw edema model; Table 5, positive control IP (5 mg/kg), 2 h post-carrageenan): 0.82 ± 0.08 mL
- Change in Paw Volume (rat paw edema model; Table 5, positive control IP (5 mg/kg), 4 h post-carrageenan): 0.94 ± 0.10 mL
- Change in Paw Volume (rat paw edema model; Table 5, positive control IP (5 mg/kg), 6 h post-carrageenan): 0.87 ± 0.11 mL
- Change in Paw Volume (rat paw edema model; Table 6, positive control IP (5 mg/kg), 2 h post-carrageenan): 0.63 ± 0.08 mL
- Change in Paw Volume (rat paw edema model; Table 6, positive control IP (5 mg/kg), 4 h post-carrageenan): 0.79 ± 0.17 mL
- Change in Paw Volume (rat paw edema model; Table 6, positive control IP (5 mg/kg), 6 h post-carrageenan): 0.82 ± 0.21 mL
- Change in Paw Volume (rat paw edema model; Table 7, positive control IP (5 mg/kg), 2 h post-carrageenan): 0.75 ± 0.14 mL
- Change in Paw Volume (rat paw edema model; Table 7, positive control IP (5 mg/kg), 4 h post-carrageenan): 1.02 ± 0.09 mL
- Change in Paw Volume (rat paw edema model; Table 7, positive control IP (5 mg/kg), 6 h post-carrageenan): 1.07 ± 0.08 mL
- Change in Paw Volume (rat paw edema model; Table 8, positive control IP (5 mg/kg), 2 h post-carrageenan): 0.76 ± 0.13 mL
- Change in Paw Volume (rat paw edema model; Table 8, positive control IP (5 mg/kg), 4 h post-carrageenan): 0.92 ± 0.09 mL
- Change in Paw Volume (rat paw edema model; Table 8, positive control IP (5 mg/kg), 6 h post-carrageenan): 0.74 ± 0.08 mL
- Change in Paw Volume (rat paw edema model; Table 9, positive control IP (5 mg/kg), 2 h post-carrageenan): 0.75 ± 0.14 mL
- Change in Paw Volume (rat paw edema model; Table 9, positive control IP (5 mg/kg), 4 h post-carrageenan): 1.02 ± 0.09 mL
- Change in Paw Volume (rat paw edema model; Table 9, positive control IP (5 mg/kg), 6 h post-carrageenan): 1.07 ± 0.08 mL
- Change in Paw Volume (rat paw edema model; Table 10, positive control IP (5 mg/kg), 2 h post-carrageenan): 0.63 ± 0.08 mL
- Change in Paw Volume (rat paw edema model; Table 10, positive control IP (5 mg/kg), 4 h post-carrageenan): 0.79 ± 0.17 mL
- Change in Paw Volume (rat paw edema model; Table 10, positive control IP (5 mg/kg), 6 h post-carrageenan): 0.82 ± 0.21 mL

SMILES: C[C@H](NC(=O)[C@@H]1Cc2ccc(cc2)OCC(=O)N[C@H](Cc2cccs2)C(=O)N[C@@H](Cc2ccc(-c3ccccc3)cc2)C(=O)N[C@H](CCc2ccccc2)C(=O)N1)C(=O)O [Compound 302]
- inhibition at 5 µM [1, 5]: 10 to 50%
- inhibition at 10 µM [1, 3]: 10 to 50%
- IC50 [2, 4]: < 10 µM

SMILES: C[C@@H](NC(=O)[C@@H]1Cc2ccc(cc2)OCC(=O)N[C@@H](Cc2cccs2)C(=O)N[C@H](Cc2ccc(-c3ccccc3)cc2)C(=O)N[C@@H](Cc2ccccc2)C(=O)N1)C(=O)O [Compound 384]
- inhibition at 5 µM [1, 5]: < 10%
- inhibition at 10 µM [1, 3]: < 10%
- IC50 [2, 4]: < 10 µM

SMILES: O=C1COc2ccc(cc2)C[C@@H](C(=O)O)NC(=O)[C@H](Cc2ccccc2)NC(=O)[C@H](Cc2ccc(-c3ccc(F)cc3)cc2)NC(=O)[C@H](Cc2cccs2)N1 [Compound 363]
- inhibition at 5 µM [1]: 50 to 80%
- inhibition at 10 µM [1]: 10 to 50%
- IC50 [2, 4]: < 10 µM

SMILES: O=C(O)CCCNC(=O)[C@@H]1Cc2ccc(cc2)NC(=O)CCC(=O)N[C@H](Cc2cccs2)C(=O)N[C@@H](Cc2ccc(-c3ccccc3)cc2)C(=O)N[C@H](Cc2ccccc2)C(=O)N1 [Compound 34] ([d2Thi][Bip][dF][Phe(4-NH2)][GABA]-OH; linker N-4 via Suc)
- inhibition at 25 µM ([1]; HeLa or A431 cells): < 10%
- IC50 [2, 4]: < 10 µM

SMILES: O=C1CCC(=O)N[C@H](CCc2ccccc2)C(=O)N[C@@H](Cc2ccc(Cl)cc2Cl)C(=O)N[C@H](Cc2ccccc2)C(=O)N[C@@H](C(=O)O)Cc2ccc(cc2)N1 [Compound 112] ([d(hPhe)][Phe(2,4-Cl2)][dF][dPhe(4-NH2)]-OH; linker N-4 via Suc)
- inhibition at 10 µM [1, 3]: < 10%
- IC50 [2, 4]: < 10 µM

SMILES: O=C1COc2ccc(cc2)C[C@@H](C(=O)N[C@H](Cc2ccccc2)C(=O)O)NC(=O)[C@@H](CCc2ccccc2)NC(=O)[C@H](Cc2ccc(-c3ccccc3)cc2)NC(=O)[C@@H](Cc2cccs2)N1 [Compound 324]
- inhibition at 5 µM [1]: 10 to 50%
- inhibition at 10 µM [1]: 10 to 50%
- IC50 ([2]; Activity (IC50, inhibition of TNFα binding to TNFα R1/Fc)): < 10 µM

SMILES: O=C(O)CN(Cc1ccccc1)C(=O)[C@@H]1Cc2ccc(cc2)NC(=O)CCC(=O)N[C@H](Cc2cccs2)C(=O)N[C@@H](Cc2ccc(-c3ccccc3)cc2)C(=O)N[C@H](Cc2ccccc2)C(=O)N1 [Compound 36] ([d2Thi][Bip][dF][Phe(4-NH2)][Nphe]-OH; linker N-4 via Suc)
- inhibition at 5 µM [1, 5]: 10 to 50%
- inhibition at 10 µM [1, 3]: 50 to 80%
- inhibition at 25 µM ([1]; HeLa or A431 cells): < 10%
- IC50 [2, 4]: < 10 µM

Source: US8338565B2, “Macrocyclic compounds for inhibition of tumor necrosis factor alpha” (Ensemble Therapeutics Corporation, priority 2008, dated 2012)
